Blank lines part the entries; values can stand above or below the compound they belong to.
Assay: photoluminescence quantum yield (fraction); solvent given as SMILES

SMILES: N#Cc1ccc(-n2nc(C#N)c(N3CCCC3)n2)cc1
- photoluminescence quantum yield (in CC#N): 0.579

SMILES: CC(C)[Si](C#Cc1c2cc3ccccc3cc2c(C#C[Si](C(C)C)(C(C)C)C(C)C)c2nc3c(nc12)Cc1ccccc1-3)(C(C)C)C(C)C
- photoluminescence quantum yield (in CCCCCC): 0.15

SMILES: CC(C)[Si]1(C(C)C)c2cc(C=O)ccc2-c2ccc(N(c3ccccc3)c3ccccc3)cc21
- photoluminescence quantum yield (in C1CCCCC1): 0.5
- photoluminescence quantum yield (in CC#N): 0.48
- photoluminescence quantum yield (in CCO): 0.11
- photoluminescence quantum yield (in CCOCC): 0.76
- photoluminescence quantum yield (in CS(C)=O): 0.58
- photoluminescence quantum yield (in ClCCl): 0.8
- photoluminescence quantum yield (in c1ccccc1): 0.77

SMILES: CC(C)(C)Nc1cc2oc3cc(NC(C)(C)C)c(F)cc3c(=O)c2cc1F
- photoluminescence quantum yield (in CCO): 0.31

SMILES: COc1ccc(C2=Nc3sc(-c4ccccc4)n[n+]3[B-](F)(F)O2)cc1
- photoluminescence quantum yield (in Cc1ccccc1): 0.29

SMILES: CCCN(c1ccccc1)c1ccc2c(c1)C(CC)(CC)c1cc(/C=C/c3ccc(/C=C(\C#N)C(=O)O)s3)ccc1-2
- photoluminescence quantum yield (in C1CCOC1): 0.355
- photoluminescence quantum yield (in C1COCCO1): 0.862
- photoluminescence quantum yield (in CC#N): 0.229
- photoluminescence quantum yield (in CC(C)=O): 0.486
- photoluminescence quantum yield (in CCOC(C)=O): 0.584
- photoluminescence quantum yield (in CN(C)C=O): 0.894
- photoluminescence quantum yield (in CS(C)=O): 0.611
- photoluminescence quantum yield (in ClCCl): 0.624

SMILES: CC(C)(C)c1ccc(C#Cc2cc3c(C#Cc4ccc(C(C)(C)C)cc4)c(C#Cc4ccc(C(C)(C)C)cc4)c4cc(C#Cc5ccc(C(C)(C)C)cc5)cc5c(C#Cc6ccc(C(C)(C)C)cc6)c(C#Cc6ccc(C(C)(C)C)cc6)c(c2)c3c45)cc1
- photoluminescence quantum yield (in ClCCl): 0.23

SMILES: CC1(C)c2ccccc2N(c2ccc(C(=CC#N)c3ccc(N4c5ccccc5C(C)(C)c5ccccc54)cc3)cc2)c2ccccc21
- photoluminescence quantum yield (in Cc1ccccc1): 0.313

SMILES: COC(=O)C(Cc1ccc2oc(-c3ccc(N(C)C)cc3)nc2c1)NC(=O)OC(C)(C)C (stereo unspecified)
- photoluminescence quantum yield (in C1CCCCC1): 1
- photoluminescence quantum yield (in C1CCOC1): 0.88
- photoluminescence quantum yield (in C1COCCO1): 1
- photoluminescence quantum yield (in CC1CCCO1): 1
- photoluminescence quantum yield (in CC1COC(=O)O1): 1
- photoluminescence quantum yield (in CC#N): 0.95
- photoluminescence quantum yield (in CC(C)=O): 1
- photoluminescence quantum yield (in CC(C)CC(C)(C)C): 0.95
- photoluminescence quantum yield (in CC(C)CO): 1
- photoluminescence quantum yield (in CC(C)O): 1
- photoluminescence quantum yield (in CC(C)OC(C)C): 1
- photoluminescence quantum yield (in CC(O)CO): 0.99
- photoluminescence quantum yield (in CCC(C)CC): 0.92
- photoluminescence quantum yield (in CCCCC): 0.95
- photoluminescence quantum yield (in CCCCCC): 0.93
- photoluminescence quantum yield (in CCCCCCCCC): 1
- photoluminescence quantum yield (in CCCCCCCCCC): 0.93
- photoluminescence quantum yield (in CCCCCCCO): 1
- photoluminescence quantum yield (in CCCCCCO): 1
- photoluminescence quantum yield (in CCCCCO): 1
- photoluminescence quantum yield (in CCCCO): 0.99
- photoluminescence quantum yield (in CCO): 0.98
- photoluminescence quantum yield (in CCOC(C)=O): 1
- photoluminescence quantum yield (in CCOCC): 0.99
- photoluminescence quantum yield (in CN(C)C=O): 0.92
- photoluminescence quantum yield (in CO): 0.81
- photoluminescence quantum yield (in COCCOC): 0.7
- photoluminescence quantum yield (in CS(C)=O): 1
- photoluminescence quantum yield (in Cc1ccccc1): 0.9
- photoluminescence quantum yield (in Cc1ccccc1C): 0.99
- photoluminescence quantum yield (in ClC(Cl)Cl): 0.68
- photoluminescence quantum yield (in ClCCl): 1
- photoluminescence quantum yield (in NC=O): 0.71
- photoluminescence quantum yield (in OC1CCCCC1): 0.91
- photoluminescence quantum yield (in OCCO): 0.76
- photoluminescence quantum yield (in c1ccccc1): 0.97

SMILES: N#Cc1nn(-c2cccc(C(F)(F)F)c2)nc1N1CCCC1
- photoluminescence quantum yield (in CC#N): 0.801

SMILES: CC(C)c1cc(C(C)C)c(B2c3ccccc3Oc3cc(N4c5ccccc5C5(c6ccccc6Oc6ccccc65)c5ccccc54)ccc32)c(C(C)C)c1
- photoluminescence quantum yield (in Cc1ccccc1): 0.56

SMILES: c1ccccc1
- photoluminescence quantum yield (in C1CCCCC1): 0.14

SMILES: C(=C\c1cc(-c2ccc3ccccc3c2)c(/C=C/c2ccc(N(c3ccccc3)c3ccccc3)cc2)cc1-c1ccc2ccccc2c1)/c1ccc(N(c2ccccc2)c2ccccc2)cc1
- photoluminescence quantum yield (in ClCCl): 0.59

SMILES: c1ccc(/C(=C(\c2ccccc2)c2cc(-c3ccc(-c4ccccc4)cc3)ccc2-c2ccc(-c3ccccc3)cc2)c2cc(-c3ccc(-c4ccccc4)cc3)ccc2-c2ccc(-c3ccccc3)cc2)cc1
- photoluminescence quantum yield (in C1CCOC1): 0.32

SMILES: CCCCN(CCCC)c1ccc(/C=C/c2ccc(-c3ccc(/C=C/c4ccc(N(CCCC)CCCC)cc4)cc3)cc2)cc1
- photoluminescence quantum yield (in CS(C)=O): 0.89
- photoluminescence quantum yield (in Cc1ccccc1): 0.81

SMILES: CC(C)(C)c1ccc2c(c1)c1cc(C(C)(C)C)ccc1n2-c1ccc(S(=O)(=O)c2ccc(-n3c4ccc(C(C)(C)C)cc4c4cc(C(C)(C)C)ccc43)cn2)nc1
- photoluminescence quantum yield (in O=P(c1ccccc1)(c1ccccc1)c1ccc2sc3cccc(P(=O)(c4ccccc4)c4ccccc4)c3c2c1): 0.62

SMILES: CN(C)CCN(Cc1c2ccccc2cc2ccccc12)c1ccc([N+](=O)[O-])cc1
- photoluminescence quantum yield (in C1CCCCC1): 0.0008
- photoluminescence quantum yield (in C1CCOC1): 0.0015
- photoluminescence quantum yield (in CC#N): 0.0143
- photoluminescence quantum yield (in CC(C)=O): 0.022
- photoluminescence quantum yield (in CCO): 0.023
- photoluminescence quantum yield (in CN(C)C=O): 0.0411
- photoluminescence quantum yield (in CO): 0.0606
- photoluminescence quantum yield (in ClC(Cl)Cl): 0.0272

SMILES: Cc1nc(-c2ccc(N3c4ccccc4C(c4ccccc4)(c4ccccc4)c4ccccc43)cc2)cc(-c2ccc(N3c4ccccc4C(c4ccccc4)(c4ccccc4)c4ccccc43)cc2)n1
- photoluminescence quantum yield (in Cc1ccccc1): 0.54
- photoluminescence quantum yield (in O=P(c1ccccc1)(c1ccccc1)c1ccc2oc3ccc(P(=O)(c4ccccc4)c4ccccc4)cc3c2c1): 0.92

SMILES: COc1ccc(-c2oc3cccc4c5c(-c6ccc(OC)c(OC)c6)c(=N)oc6cccc(c2c34)c65)cc1OC
- photoluminescence quantum yield (in ClC(Cl)Cl): 0.41

SMILES: C=Cc1cccc(OC)c1
- photoluminescence quantum yield (in C1CCCCC1): 0.32
- photoluminescence quantum yield (in CC#N): 0.28

SMILES: CCCC1=Cc2nc1ccc1[nH]c(cc1CCC)c1nc(c(NC(=O)CCCC(=O)OC)cc3[nH]c2cc3CCC)C(CCC)=C1
- photoluminescence quantum yield (in Cc1ccccc1): 0.2

SMILES: CCC1=C(C)C2=Cc3c4ccccc4c4n3[B-](c3ccc(OC)cc3)(Oc3ccccc3-4)[N+]2=C1C (stereo unspecified)
- photoluminescence quantum yield (in CC#N): 0.67
- photoluminescence quantum yield (in CCCCCC): 0.71
- photoluminescence quantum yield (in Cc1ccccc1): 0.68
- photoluminescence quantum yield (in ClCCl): 0.7

SMILES: CCCCCCc1ccc(-n2c3c4cccc(OC)c4nc(-c4ccc(OC)cc4)c3c3c2c2c(-c4ccc(OC)cc4)nc4c(OC)cccc4c2n3-c2ccc(CCCCCC)cc2)cc1
- photoluminescence quantum yield (in ClC(Cl)Cl): 0.042

SMILES: c1ccc2nc3cccc(-c4ccc(-n5c6ccccc6c6ccccc65)cc4)c3cc2c1
- photoluminescence quantum yield (in CC#N): 0.325
- photoluminescence quantum yield (in CCCCCC): 0.0319
- photoluminescence quantum yield (in CCOCC): 0.102
- photoluminescence quantum yield (in ClCCl): 0.253

Continued, values first:

- photoluminescence quantum yield (in ClCCl): 0.27
SMILES: Cc1ccc2nc3cc4c(cc3c(-c3ccccc3)c2c1)[Si](C)(C)O[Si]4(C)C

- photoluminescence quantum yield (in CCCCCCC): 0.73
SMILES: c1ccc2cc3c(cc2c1)-c1cccc2c1c-3cc1ccccc12

- photoluminescence quantum yield (in C1COCCO1): 0.95
- photoluminescence quantum yield (in CC#N): 0.87
- photoluminescence quantum yield (in CO): 0.92
- photoluminescence quantum yield (in ClCCl): 0.95
SMILES: COC(=O)c1nc2c(OCc3ccccc3)nc(N)nc2n1Cc1ccccc1

- photoluminescence quantum yield (in CCO): 0.19
- photoluminescence quantum yield (in ClCCl): 0.47
SMILES: Cc1ccccc1-c1c2ccc(=[N+]3CCN(C(=O)OC(C)(C)C)CC3)cc-2oc2cc(N3CCN(C(=O)OC(C)(C)C)CC3)ccc12

- photoluminescence quantum yield (in ClCCl): 0.79
SMILES: c1ccc(CSc2c3ccc(=[N+]4CCCCC4)cc-3oc3cc(N4CCCCC4)ccc23)cc1

- photoluminescence quantum yield (in C1CCCCC1): 0.35
- photoluminescence quantum yield (in CC#N): 0.39
- photoluminescence quantum yield (in CO): 0.26
- photoluminescence quantum yield (in ClCCl): 0.36
SMILES: COc1c2ccccc2c(OC)c2c1c1ccc(C(F)(F)F)cc1n2C

- photoluminescence quantum yield (in CN(C)C=O): 0.066
SMILES: O=C([O-])c1ccc(C(=O)[O-])c2cc3ccccc3cc12

- photoluminescence quantum yield (in C1COCCO1): 0.61
- photoluminescence quantum yield (in CC#N): 0.58
- photoluminescence quantum yield (in CO): 0.49
- photoluminescence quantum yield (in ClCCl): 0.58
SMILES: CNc1ncc2nc(C#N)n(Cc3ccccc3)c2n1

- photoluminescence quantum yield (in CC#N): 0.01
SMILES: C[C@]12SC(=O)C=C1c1nc(-c3ccccc3O)[nH]c1C1=CC(=O)S[C@@]12C

- photoluminescence quantum yield (in CC#N): 0.08
- photoluminescence quantum yield (in CCCCCC): 0.95
- photoluminescence quantum yield (in CO): 0.14
- photoluminescence quantum yield (in ClC(Cl)Cl): 0.3
- photoluminescence quantum yield (in ClCCl): 0.32
SMILES: F[B-]1(F)n2c(nc3c4ccccc4c4ccccc4c32)-c2cccc[n+]21

- photoluminescence quantum yield (in CCO): 0.715
SMILES: Cc1c(COC(=O)Cc2c[nH]c3ccccc23)n2c(OCC(=O)Cc3c[nH]c4ccccc34)c(C)c(=O)n2c1=O

- photoluminescence quantum yield (in CS(C)=O): 0.41
SMILES: O=C1CCCC2=C1C(c1ccccc1)c1c(c3ccccc3oc1=O)N2 (stereo unspecified)

- photoluminescence quantum yield (in C1CCOC1): 0.27
SMILES: CCCCCOc1cc2oc(=O)c3c4ccc(O)cc4c4ccc5cccc6c(c1)c2c3c4c56

- photoluminescence quantum yield (in ClCCl): 0.47
SMILES: CN(C)c1ccc(-c2cccc3nsnc23)cc1

- photoluminescence quantum yield (in C1CCCCC1): 0.51
SMILES: C[Si](C)(C)C#CC#Cc1ccc2c3cccc4cccc(c5cccc1c52)c43

- photoluminescence quantum yield (in CO): 0.4
SMILES: O=C(O)c1ccc(-c2cnc(-c3ccc(N(c4ccccc4)c4ccccc4)cc3)s2)cc1

- photoluminescence quantum yield (in ClCCl): 0.05
SMILES: N#CC(C#N)=Cc1ccc2c(c1)c1ccccc1n2-c1cccc2ccccc12

- photoluminescence quantum yield (in CCCCCC): 0.37
SMILES: CC(C)[Si](C#Cc1ccc(C#C[Si](C(C)C)(C(C)C)C(C)C)c2nc3c(ccc4cc5ccccc5cc43)nc12)(C(C)C)C(C)C

- photoluminescence quantum yield (in C1CCCCC1): 0.22
SMILES: CCn1c2ccccc2c2ccc(-c3ccc(OC)cc3)cc21

- photoluminescence quantum yield (in ClCCl): 0.01
SMILES: CCOC(=O)COc1ccc(/C=C/C2=C3C(C)=CC(/C=C/c4ccc(OCC(=O)OCC)cc4)=[N+]3[B-](F)(F)n3c2c2ccccc2c3-c2[nH]c(C)cc2C)cc1

- photoluminescence quantum yield (in C1CCCCC1): 0.72
SMILES: Cc1cc(C)c(B2c3cc(C(C)(C)C)cc4ccc5c6ccccc6c6cc(C(C)(C)C)cc2c6c5c34)c(C)c1

- photoluminescence quantum yield (in ClCCl): 0.17
SMILES: COC(=O)CCC1=CC(C#Cc2cccs2)=[N+]2C1=Cc1c(CCC(=O)OC)cc(C#Cc3cccs3)n1[B-]2(F)F

- photoluminescence quantum yield (in CS(C)=O): 0.11
SMILES: Clc1ccc(-c2nc3ccccc3c3cc4ccccn4c23)s1

- photoluminescence quantum yield (in ClCCl): 0.86
SMILES: COc1cccc(OC)c1-c1c2ccc(=[N+]3CCCCC3)cc-2oc2cc(N3CCCCC3)ccc12

- photoluminescence quantum yield (in CC#N): 0.045
- photoluminescence quantum yield (in CCCCCCC): 0.008
- photoluminescence quantum yield (in CO): 0.002
- photoluminescence quantum yield (in O): 0.003
SMILES: CC(=O)n1cc(/C=C/c2ccc([N+](=O)[O-])cc2)c2ccccc21

- photoluminescence quantum yield (in CCO): 0.04
SMILES: N#CC1=C(c2ccc(-c3cccs3)s2)CCC1
